{
  "source": "patent US6767911B2",
  "about": "“Fungicidal active compound combinations” (priority 1994, dated 2004)",
  "key": {"Botrytis cinerea": {"system": "Botrytis cinerea", "test": "Botrytis test (beans)/protective", "assay_type": "in vivo", "details": "protective, 3 days after inoculation", "method": "Botrytis Test (Beans)/Protective\nTo produce a suitable preparation of active compound, either commercially available formulations of active compound (individual active compound or active compound combinations) or one part by weight of active compound is mixed with 4.7 parts by weight of solvent (acetone) and 0.3 parts by weight of emulsifier (alkyl-aryl polyglycol ether), and the mixture is diluted with water to the desired concentration.\nTo test for protective activity, young plants are sprayed with the preparation of active compound until dripping wet. After the spray coating has dried on, 2 small pieces of agar covered with Botrytis cinerea are placed on each leaf. The inoculated plants are placed in a darkened humid chamber at 20° C. 3 days after the inoculation, the size of the infected spots on the leaves is evaluated.\nActive compounds, active compound concentrations and test results can be seen from the tables which follow."}, "[1]": {"system": "Erysiphe graminis f.sp. tritici", "test": "Erysiphe test (wheat)/protective", "assay_type": "in vivo", "details": "protective, 125 g/ha, 7 days after inoculation", "method": "Erysiphe Test (Wheat)/Protective\n(§1) To produce a suitable preparation of active compound, commercially available formulations of active compound are diluted with water to the desired concentration.\n(§2) To test for protective activity, young plants are sprayed with the preparation of active compound at the application rate shown.\nAfter the spray coating has dried on, the plants are dusted with spores of Erysiphe graminis f.sp. tritici.\n(§3) The plants are placed in a greenhouse at a temperature of about 20° C. and a relative atmospheric humidity of about 80%, in order to promote the development of mildew pustules.\nEvaluation is carried out 7 days' after the inoculation."}, "[2]": {"system": "Erysiphe graminis f.sp. hordei", "test": "Erysiphe test (barley)/curative", "assay_type": "in vivo", "details": "curative, 7 days after inoculation", "method": "Erysiphe Test (Barley)/Curative\nas §1\nTo test for curative activity, young plants are dusted with spores of Erysiphe graminis f.sp. hordei. 48 hours after the inoculation, the plants are sprayed with the preparation of active compound at the application rate shown.\nas §3\n(§4) Evaluation is carried out 7 days after the inoculation.\nThe expected degree of effectiveness in % of the untreated control was calculated using the equation [formula]\nin which x and y denote, respectively, the degree of effectiveness—expressed in % of the untreated control—obtained by the two preparations when used separately. If the actually observed degree of effectiveness of the active compound combination exceeds the value calculated for the expected degree of effectiveness (E) using the abovementioned formula, then there is a superadditive, i.e. synergistic, effect."}, "Fusarium nivale": {"system": "Fusarium nivale", "test": "Fusarium nivale test (wheat)/seed treatment", "assay_type": "in vivo", "details": "approx. 3 weeks after sowing", "method": "Fusarium nivale Test (Wheat)/Seed Treatment\n(§5) The active compounds are used as a powder for dry seed treatment. They are prepared by extending the active compound in question with rock meal to give a finely pulverulent mixture which guarantees uniform distribution on the seed surface.\n(§6) To carry out the seed treatment, the infected seed and the seed-dressing product are shaken for 3 minutes in a sealed glass flask.\n2×100 wheat kernels are sown in standard soil at a depth of 1 cm and grown in the greenhouse at a temperature of approximately 10° C. and a relative atmospheric humidity of approximately 95% in seed boxes which are exposed to the light for 15 hours per day.\nApproximately 3 weeks after sowing, the plants are evaluated for snow blight symptoms."}, "Penicillium custosum": {"system": "Penicillium custosum", "test": "Agar plate test with Penicillium custosum", "assay_type": "cell-based", "details": "100 ppm, inhibition of growth after 6 days", "method": "Agar Plate Test With Penicillium custosum\n39 parts by weight of potato dextrose agar\n20 parts by weight of agar\nare dissolved in 1,000 ml of distilled water and the solution is kept in an autoclave at 121° C. for 20 minutes.\n50 parts by weight of acetone\n950 parts by weight of water\nRatio of the amount of solvent to nutrient medium: 1:100\nTo produce a suitable preparation of active compound, 1 part by weight of active compound is mixed with the stated amount of solvent.\nThe concentrate is thoroughly mixed, in the stated ratio, with the liquid nutrient medium, and the mixture is poured into Petri dishes.\nWhen the nutrient medium has cooled and solidified, the plates are inoculated with the following microorganisms and are incubated at about 21° C.: Penicillium custosum.\nEvaluation is carried out after 6 days, the inhibition of growth being used as a measure of the action of the products."}, "[3]": {"system": "Erysiphe graminis f.sp. hordei", "test": "Erysiphe test (barley)/protective", "assay_type": "in vivo", "details": "protective, 125 g/ha, 7 days after inoculation", "method": "Erysiphe Test (Barley)/Protective\nas §1, §2\nAfter the spray coating has dried on, the plants are dusted with spores of Erysiphe graminis f.sp. hordei.\nas §3, §4"}, "Leptosphaeria nodorum": {"system": "Leptosphaeria nodorum", "test": "Leptosphaeria nodorum test (wheat)/protective", "assay_type": "in vivo", "details": "protective, 125 g/ha, 10 days after inoculation", "method": "Leptosphaeria nodorum Test (Wheat)/Protective\nas §1, §2\nAfter the spray coating has dried on, the plants are sprayed with a spore suspension of Leptosphaeria nodorum. The plants remain for 48 hours in an incubation cabin at 20° C. and 100% relative atmospheric humidity.\nThe plants are placed in a greenhouse at a temperature of about 15° C. and a relative atmospheric humidity of about 80%.\nEvaluation is effected 10 days after the inoculation."}, "Drechslera graminea": {"system": "Drechslera graminea", "test": "Drechslera graminea test (barley)/seed treatment (syn. Helminthosporium gramineum)", "assay_type": "in vivo", "details": "approx. 3 weeks after sowing", "method": "Drechslera graminea Test (Barley)/Seed Treatment (syn. Helminthosporium gramineum)\nas §5, §6\nThe seed, embedded in screened, moist standard soil in sealed Petri dishes, is exposed to a temperature of 4° C. for 10 days in a refrigerator. This triggers germination of the barley and, if appropriate, of the fungal spores. 2×50 pregerminated barley kernels are subsequently sown in standard soil at a depth of 3 cm and grown in a greenhouse at a temperature of approximately 18° in seed boxes which are exposed to the light for 15 hours per day.\nApproximately 3 weeks after sowing, the plants are evaluated for symptoms of barley leaf stripe."}},
  "data": [
    {"smiles": "CC1(C(=O)Nc2ccc(O)c(Cl)c2Cl)CCCCC1", "note": "[(I)]", "values": [
      {"measurement": "Degree of effectiveness in % of the untreated control", "setting": "Botrytis cinerea; 5 ppm", "value": 29, "unit": "%"},
      {"measurement": "Degree of effectiveness in % of the untreated control", "setting": "[1]", "value": 25, "unit": "%"},
      {"measurement": "Degree of effectiveness in % of the untreated control", "setting": "[2]; 20 g/ha", "value": 25, "unit": "%"},
      {"measurement": "Degree of effectiveness in % of the untreated control", "setting": "Fusarium nivale; 25 mg/kg of seed", "value": 0, "unit": "%"},
      {"measurement": "Degree of effectiveness in % of the untreated control", "setting": "Fusarium nivale; 100 mg/kg of seed", "value": 22, "unit": "%"},
      {"measurement": "Degree of effectiveness in % of the untreated control", "setting": "Penicillium custosum", "value": 24, "unit": "%"},
      {"measurement": "Degree of effectiveness in % of the untreated control", "setting": "[3]", "value": 18, "unit": "%"},
      {"measurement": "Degree of effectiveness in % of the untreated control", "setting": "Leptosphaeria nodorum", "value": 57, "unit": "%"},
      {"measurement": "Degree of effectiveness in % of the untreated control", "setting": "Drechslera graminea; 50 mg/kg of seed", "value": 41, "unit": "%"},
      {"measurement": "Degree of effectiveness in % of the untreated control", "setting": "Drechslera graminea; 100 mg/kg of seed", "value": 43, "unit": "%"}
    ]},
    {"smiles": "CCCN(CC)CC1COC2(CCC(C(C)(C)C)CC2)O1", "note": "(stereo not drawn) [(L), 8-(,1,1-dimethylethyl)-N-ethyl-N-propyl-1,4-dioxaspiro[4,5]decane-2-methaneamine]", "values": [
      {"measurement": "Degree of effectiveness in % of the untreated control", "setting": "Botrytis cinerea; 200 ppm", "value": 0, "unit": "%"},
      {"measurement": "Degree of effectiveness in % of the untreated control", "setting": "[2]; 10 g/ha", "value": 66, "unit": "%"}
    ]},
    {"smiles": "CNC(=O)/C(=N/OC)c1ccccc1Oc1ccccc1", "note": "[(M), (E)-α-(methoxyimino)-N-methyl-2-phenoxy-benzacetamide]", "values": [
      {"measurement": "Degree of effectiveness in % of the untreated control", "setting": "Botrytis cinerea; 25 ppm", "value": 28, "unit": "%"}
    ]},
    {"smiles": "CNC(=O)/C(=N/OC)c1ccccc1COc1cc(C)ccc1C", "note": "[(N), (E)-α-(methoxyimono)-N-methyl-2-(2,5-dimethyl-phenoxy-methyl)-benzacetamide]", "values": [
      {"measurement": "Degree of effectiveness in % of the untreated control", "setting": "Botrytis cinerea; 12.5 ppm", "value": 64, "unit": "%"}
    ]},
    {"smiles": "Cc1ccc(C(C)NC(=O)C(NC(=O)OC(C)C)C(C)C)cc1", "note": "(stereo not drawn) [(O), 1-methylethyl [2-methyl-1-[[[1-(4-methylphenyl)ethyl]amino]carbonyl]propyl]-carbamate]", "values": [
      {"measurement": "Degree of effectiveness in % of the untreated control", "setting": "Botrytis cinerea; 200 ppm", "value": 19, "unit": "%"}
    ]},
    {"smiles": "Cc1cc(C2CC2)nc(Nc2ccccc2)n1", "note": "[Ciprodinyl, cyprodinyl]", "values": [
      {"measurement": "Degree of effectiveness in % of the untreated control", "setting": "Botrytis cinerea; 5 ppm", "value": 5, "unit": "%"}
    ]},
    {"smiles": "Fc1ccc(C2(Cn3cncn3)OC2c2ccccc2Cl)cc1", "note": "(stereo not drawn) [Epoxiconazole, epoxiconazole]", "values": [
      {"measurement": "Degree of effectiveness in % of the untreated control", "setting": "Leptosphaeria nodorum", "value": 57, "unit": "%"}
    ]},
    {"smiles": "CCCCc1c(C)nc(NCC)nc1O", "note": "[Ethirimol, ethirimol]", "values": [
      {"measurement": "Degree of effectiveness in % of the untreated control", "setting": "Drechslera graminea; 100 mg/kg of seed", "value": 8, "unit": "%"}
    ]},
    {"smiles": "N#Cc1c[nH]cc1-c1cccc(Cl)c1Cl", "note": "[Fenpiclonil, fenpiclonil]", "values": [
      {"measurement": "Degree of effectiveness in % of the untreated control", "setting": "Fusarium nivale; 25 mg/kg of seed", "value": 6, "unit": "%"},
      {"measurement": "Degree of effectiveness in % of the untreated control", "setting": "Drechslera graminea; 50 mg/kg of seed", "value": 41, "unit": "%"}
    ]},
    {"smiles": "CC(Cc1ccc(C(C)(C)C)cc1)CN1CCCCC1", "note": "(stereo not drawn) [Fenpropidin, fenpropidin]", "values": [
      {"measurement": "Degree of effectiveness in % of the untreated control", "setting": "Botrytis cinerea; 50 ppm", "value": 0, "unit": "%"}
    ]},
    {"smiles": "N#Cc1c[nH]cc1-c1cccc2c1OC(F)(F)O2", "note": "[Fludioxonil]", "values": [
      {"measurement": "Degree of effectiveness in % of the untreated control", "setting": "Botrytis cinerea; 1 ppm", "value": 5, "unit": "%"}
    ]},
    {"smiles": "O=c1c2cc(F)ccc2nc(-n2cncn2)n1-c1ccc(Cl)cc1Cl", "note": "[Fluquinconazole, fluquinconazole]", "values": [
      {"measurement": "Degree of effectiveness in % of the untreated control", "setting": "Botrytis cinerea; 25 ppm", "value": 29, "unit": "%"}
    ]},
    {"smiles": "CC(=O)O.CC(=O)O.CC(=O)O.NC(N)=NCCCCCCCCNCCCCCCCCN=C(N)N", "note": "[Iminoctadine triacetate]", "values": [
      {"measurement": "Degree of effectiveness in % of the untreated control", "setting": "[3]", "value": 27, "unit": "%"}
    ]},
    {"smiles": "Cc1ccc2nc3sc(=O)sc3nc2c1", "note": "[Quinomethionate, quinomethionate]", "values": [
      {"measurement": "Degree of effectiveness in % of the untreated control", "setting": "Botrytis cinerea; 50 ppm", "value": 0, "unit": "%"},
      {"measurement": "Degree of effectiveness in % of the untreated control", "setting": "[1]", "value": 9, "unit": "%"}
    ]},
    {"smiles": "O=S([O-])CO.[Na+]", "note": "[Sodium hydroxymethyl sulphinate]", "values": [
      {"measurement": "Degree of effectiveness in % of the untreated control", "setting": "Botrytis cinerea; 200 ppm", "value": 32, "unit": "%"}
    ]}
  ]
}
